Results from the Kinase Knowledgebase extract (Sharma et al. 2016).
Values joined by “and” are separate entries in the source; they are usually repeats but may differ in a detail not shown here. Equal values may be shown once. Each block holds one compound with its values, some of them ahead of it.

Key:
PIK3CA (human) [1] = biological target: PIK3CA (human) (UniProt P42336); assay: Antiproliferation of NZOV9 Cell Line Using Thymidine Depletion Assay
PIK3CA (human) [2] = biological target: PIK3CA (human) (UniProt P42336); assay: Antiproliferation of NZB5 Cell Line Using Thymidine Depletion Assay
MAPK14 [3] = biological target: MAPK14 (UniProt Q16539); assay: p38 MAP kinase Inhibition Assay
Chain of MAPK14 (Q16539 whole entry, looked up): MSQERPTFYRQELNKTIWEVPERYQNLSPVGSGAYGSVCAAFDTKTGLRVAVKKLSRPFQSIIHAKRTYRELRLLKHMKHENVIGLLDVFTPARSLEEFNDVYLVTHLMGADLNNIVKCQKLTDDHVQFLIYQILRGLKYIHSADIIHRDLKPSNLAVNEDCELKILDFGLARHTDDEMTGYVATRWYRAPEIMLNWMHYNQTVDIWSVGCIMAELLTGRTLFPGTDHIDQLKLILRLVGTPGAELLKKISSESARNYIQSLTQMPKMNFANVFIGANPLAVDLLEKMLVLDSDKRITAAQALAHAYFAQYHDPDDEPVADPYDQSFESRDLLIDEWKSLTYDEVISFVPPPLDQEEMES

MAPK14 (human) [4] = biological target: MAPK14 (human) (UniProt Q16539); assay: Inhibition of MAPK14 Kinase Activity
Chain of MAPK14 (human) (Q16539 whole entry, looked up): as above

EGFR (human) [5] = biological target: EGFR (human) (UniProt P00533)
Chain of EGFR (human) (P00533 whole entry, looked up): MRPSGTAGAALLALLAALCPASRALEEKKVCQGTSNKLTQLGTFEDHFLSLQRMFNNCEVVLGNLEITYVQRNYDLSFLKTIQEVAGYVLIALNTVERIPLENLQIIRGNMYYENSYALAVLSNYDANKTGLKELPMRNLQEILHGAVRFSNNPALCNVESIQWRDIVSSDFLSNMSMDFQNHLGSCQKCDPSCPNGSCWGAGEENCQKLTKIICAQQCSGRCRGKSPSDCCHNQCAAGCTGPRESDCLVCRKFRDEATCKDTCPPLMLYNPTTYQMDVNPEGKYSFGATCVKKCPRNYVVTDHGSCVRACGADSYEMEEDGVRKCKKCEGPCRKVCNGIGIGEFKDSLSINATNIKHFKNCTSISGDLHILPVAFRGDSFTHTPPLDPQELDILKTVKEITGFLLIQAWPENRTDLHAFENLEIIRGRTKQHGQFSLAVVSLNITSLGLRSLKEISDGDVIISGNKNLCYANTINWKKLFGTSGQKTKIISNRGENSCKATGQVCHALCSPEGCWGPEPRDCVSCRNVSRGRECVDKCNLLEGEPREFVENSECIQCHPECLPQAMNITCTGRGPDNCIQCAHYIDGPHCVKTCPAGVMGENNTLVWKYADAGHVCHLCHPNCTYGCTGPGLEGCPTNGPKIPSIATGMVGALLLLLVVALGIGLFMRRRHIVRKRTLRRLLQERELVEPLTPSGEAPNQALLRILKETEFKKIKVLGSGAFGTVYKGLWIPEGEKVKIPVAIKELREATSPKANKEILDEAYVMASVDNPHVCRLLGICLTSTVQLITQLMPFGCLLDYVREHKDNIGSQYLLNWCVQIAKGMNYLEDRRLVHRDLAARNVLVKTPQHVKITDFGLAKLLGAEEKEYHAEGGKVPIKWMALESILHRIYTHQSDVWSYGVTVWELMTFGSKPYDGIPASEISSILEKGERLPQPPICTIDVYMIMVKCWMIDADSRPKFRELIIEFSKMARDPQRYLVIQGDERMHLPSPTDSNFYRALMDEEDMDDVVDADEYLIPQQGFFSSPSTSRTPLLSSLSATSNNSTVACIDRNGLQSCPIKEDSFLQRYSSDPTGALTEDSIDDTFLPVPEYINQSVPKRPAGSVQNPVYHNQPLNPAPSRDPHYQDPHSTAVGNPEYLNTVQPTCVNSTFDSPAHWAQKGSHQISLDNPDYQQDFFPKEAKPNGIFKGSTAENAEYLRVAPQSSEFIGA

EGFR [6] = biological target: EGFR (UniProt P00533)
Chain of EGFR (P00533 whole entry, looked up): as above

EGFR (human) [7] = biological target: EGFR (human) (UniProt P00533); remark: listed apart in the source
EGFR (human) [8] = biological target: EGFR (human) (UniProt P00533); remark: listed apart in the source
EGFR [9] = biological target: EGFR (UniProt P00533); remark: listed apart in the source
MAPK14 [10] = biological target: MAPK14 (UniProt Q16539); assay: Inhibition of MAPK14 Kinase Activity (Spectrophometric Assay)
[11] = biological target: PIK3CB;PIK3CG;PIK3CD;PIK3CA (human) (UniProt P48736); assay: Antiproliferation of Anti-IgM stimulated Human B Cells by PI3K Inhibitors
PIK3CA (bovine) = PIK3CA (bovine) (UniProt P32871); assay: Inhibition of PIK3CA Kinase Activity
Chain of PIK3CA (bovine) (P32871 whole entry, looked up): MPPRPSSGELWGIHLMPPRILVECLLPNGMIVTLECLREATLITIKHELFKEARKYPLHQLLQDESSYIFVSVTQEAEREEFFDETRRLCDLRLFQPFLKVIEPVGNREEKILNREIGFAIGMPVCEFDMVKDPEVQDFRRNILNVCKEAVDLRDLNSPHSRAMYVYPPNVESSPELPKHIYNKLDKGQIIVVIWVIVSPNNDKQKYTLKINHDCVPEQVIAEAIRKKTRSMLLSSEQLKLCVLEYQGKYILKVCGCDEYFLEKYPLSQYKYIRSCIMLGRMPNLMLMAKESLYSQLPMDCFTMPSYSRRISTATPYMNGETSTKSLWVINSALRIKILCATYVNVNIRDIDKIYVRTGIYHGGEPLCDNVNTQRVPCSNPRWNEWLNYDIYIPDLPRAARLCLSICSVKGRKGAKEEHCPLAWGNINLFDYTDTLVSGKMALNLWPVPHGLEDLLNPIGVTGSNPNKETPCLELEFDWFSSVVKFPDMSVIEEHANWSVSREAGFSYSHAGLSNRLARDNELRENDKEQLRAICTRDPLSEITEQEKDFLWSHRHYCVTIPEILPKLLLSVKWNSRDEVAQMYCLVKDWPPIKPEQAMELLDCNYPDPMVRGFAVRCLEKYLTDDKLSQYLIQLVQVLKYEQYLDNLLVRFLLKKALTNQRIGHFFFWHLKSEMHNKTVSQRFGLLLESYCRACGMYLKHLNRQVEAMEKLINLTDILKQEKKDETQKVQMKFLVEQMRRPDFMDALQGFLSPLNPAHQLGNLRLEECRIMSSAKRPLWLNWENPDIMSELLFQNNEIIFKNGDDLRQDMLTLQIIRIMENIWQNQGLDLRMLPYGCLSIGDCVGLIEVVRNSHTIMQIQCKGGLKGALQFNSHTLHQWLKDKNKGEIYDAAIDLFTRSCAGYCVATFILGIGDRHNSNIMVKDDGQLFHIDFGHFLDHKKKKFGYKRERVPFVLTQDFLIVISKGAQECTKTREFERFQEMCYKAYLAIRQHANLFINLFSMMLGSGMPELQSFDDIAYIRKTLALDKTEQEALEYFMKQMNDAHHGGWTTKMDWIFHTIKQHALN

EGFR [12] = biological target: EGFR (UniProt P00533); remark: listed apart in the source
EGFR [13] = biological target: EGFR (UniProt P00533); remark: listed apart in the source
EGFR (human) [14] = biological target: EGFR (human) (UniProt P00533); settings: a431
MAPK14 (human) [15] = biological target: MAPK14 (human) (UniProt Q16539); assay: Inhibition of IL-beta Production in LPS Stimulated Whole Blood; settings: blood cells
MAPK14 (human) [16] = biological target: MAPK14 (human) (UniProt Q16539); assay: Inhibition of TNF-alpha Production in LPS Stimulated Whole Blood; settings: blood cells
EGFR (human) [17] = biological target: EGFR (human) (UniProt P00533); settings: concentration not given here
EGFR [18] = biological target: EGFR (UniProt P00533); remark: listed apart in the source
EGFR (human) [19] = biological target: EGFR (human) (UniProt P00533); settings: concentration not given here; remark: listed apart in the source
EGFR [20] = biological target: EGFR (UniProt P00533); settings: a431
EGFR [21] = biological target: EGFR (UniProt P00533); settings: swiss 3t3 fibroblast
EGFR [22] = biological target: EGFR (UniProt P00533); remark: listed apart in the source
EGFR [23] = biological target: EGFR (UniProt P00533); remark: listed apart in the source
EGFR (human) [24] = biological target: EGFR (human) (UniProt P00533); remark: listed apart in the source

Chain of PIK3CA (human) (P42336 whole entry, looked up): as the sequence (P32871 whole entry, looked up) above, with R532K, C535S counted along it

IC50 (PIK3CA (human) [1]): > 20 µM | IC50 (PIK3CA (human) [2]): > 20 µM
SMILES: Cc1ccc([N+](=O)[O-])cc1S(=O)(=O)N(C)N=Cc1csc2ccccc12

IC50 (MAPK14 [3]): 1000 µM
SMILES: c1cncc(CCc2c[nH]c3ccccc23)c1

IC50 (MAPK14 (human) [4]): 0.111 µM | IC50 (EGFR (human) [5]): < 1 µM
SMILES: O=C(CO)N1CCC(c2[nH]nc(-c3ccc(Cl)cc3)c2-c2ccncc2)CC1

IC50 (EGFR [6]): 0.13 µM
SMILES: COc1ccc(N2Cc3cnc(Nc4ccc(O)cc4)nc3N(c3ccccc3)C2=O)cc1

IC50 (EGFR (human) [7]): ≤ 0.1 µM
SMILES: COc1cc2ncnc(Nc3ccc4occc4c3)c2cc1OCCCCCCC(=O)NO

IC50 (EGFR (human) [8]): 3.3 µM
SMILES: CN(c1ccc(N2CCOCC2)cc1)c1ncnc2nc(Nc3ccc(S(N)(=O)=O)cc3)sc12

IC50 (EGFR [9]): > 10 µM
SMILES: c1ccc(CNc2ncnc3ncccc23)cc1

IC50 (MAPK14 [10]): 0.008 µM
SMILES: CC(C)(C)c1cc(NC(=O)Nc2cccc3ccccc23)n(-c2ccc(CO)cc2)n1

IC50 (MAPK14 [3]): 1000 µM
SMILES: Cc1ccc(S(=O)(=O)n2cc(/C=C/c3cccnc3)c3ccccc32)cc1

SMILES: Cc1cccnc1-c1nc2c(Cl)cccc2cc1CNc1ncnc2[nH]cnc12
IC50 [11]: 0.079 µM

IC50 (PIK3CA (bovine)): > 30 µM
SMILES: c1ccc(-c2nc(N3CCOCC3)c3sc4ccccc4c3n2)cc1

IC50 (EGFR [12]): > 50 µM
SMILES: CCNC(=O)Nc1nc2nc(NCCCN3CCN(C)CC3)ncc2cc1-c1cc(OC)cc(OC)c1

IC50 (EGFR [13]): 0.021 µM
SMILES: CN(C)CC(=O)N1CCC(Oc2ccc3ncnc(Nc4ccc(OCc5cnccn5)c(Cl)c4)c3c2)CC1

IC50 (PIK3CA (human) [1]): > 20 µM | IC50 (PIK3CA (human) [2]): > 20 µM
SMILES: Cc1ccc([N+](=O)[O-])cc1S(=O)(=O)N(C)N=Cc1cccc2ccccc12

SMILES: N#CC(C#N)=Cc1cc(O)cc(O)c1
Ki (EGFR (human) [14]): 10 µM

IC50 (EGFR (human) [5]): 0.101 µM
SMILES: O=C(CO)N1CCC(c2[nH]nc(-c3ccc(Cl)cc3)c2-c2ccncn2)CC1

IC50 (MAPK14 (human) [15]): > 10 µM | IC50 (MAPK14 (human) [16]): > 10 µM
SMILES: CSc1nc(-c2ccc(F)cc2)c(-c2ccnc(NC(C)=O)c2)n1CCN1CCCCC1

inhibition (EGFR (human) [17]): -13%
SMILES: COCCOc1cc2ncnc(NC3=CC(=O)C(OCc4cccc(OC)c4)=CC3=O)c2cc1OC

IC50 (MAPK14 (human) [15]): > 10 µM | IC50 (MAPK14 (human) [16]): > 10 µM
SMILES: CSc1nc(-c2ccc(F)cc2)c(-c2ccnc(NC(C)=O)c2)n1CCN1CCOCC1

IC50 (EGFR (human) [7]): ≤ 0.1 µM
SMILES: COc1cc2c(Nc3ccc4[nH]c(C)cc4c3F)ncnc2cc1OCCCCCCC(=O)NO

IC50 (EGFR [18]): 0.038 µM
SMILES: CN(C)CCCCNc1cc2ncnc(Nc3cccc(Br)c3)c2cn1

inhibition (EGFR (human) [19]): < 50%
SMILES: CCc1nc2c(NC(C)(C)C)nc(Nc3ccc4ncsc4c3)nc2[nH]1

SMILES: Cc1ccc([N+](=O)[O-])cc1S(=O)(=O)N(C)N=Cc1cncn1C
IC50 (PIK3CA (human) [1]): > 20 µM | IC50 (PIK3CA (human) [2]): > 20 µM

IC50 (EGFR [12]): > 50 µM
SMILES: COc1cc(OC)cc(-c2cc3cnc(NCCCN4CCN(C)CC4)nc3nc2NC(=O)NC(C)(C)C)c1

IC50 (MAPK14 [3]): 177 µM
SMILES: c1cnc2c(c1)ccn2CCc1ccncc1

IC50 (EGFR [20]): > 30 µM | IC50 (EGFR [21]): > 30 µM
SMILES: COc1cc2[nH]c3c(-c4ccccc4C)nc4c(c3c2cc1OC)C(=O)NC4=O

IC50 (EGFR [22]): 10 µM
SMILES: COc1cc2ncnc(Nc3ccc4c(ccn4Cc4ccccc4)c3)c2cc1OC

SMILES: Fc1ccc(OCCc2ccccc2)c(-c2nc3c(Cl)cccc3cc2CNc2ncnc3[nH]cnc23)c1
IC50 [11]: 0.565 µM

IC50 (EGFR (human) [8]): 0.0109 µM
SMILES: OC[C@@H]1CCCN1Cc1ccc(Nc2nc3ncnc(Nc4ccc(F)c(Cl)c4)c3s2)cc1

inhibition (EGFR (human) [17]): -27%
SMILES: COCCOc1cc2ncnc(NC3=CC(=O)C(OCc4cccc(F)c4)=CC3=O)c2cc1OC

IC50 (EGFR [22]): 0.3 µM
SMILES: c1ccc2c(Nc3ccc4[nH]ccc4c3)ncnc2c1

inhibition (EGFR (human) [19]): 65 to 80%
SMILES: CC(C)(C)Nc1nc(Nc2ccc3ncsc3c2)nc2[nH]cnc12

IC50 (EGFR [18]): 0.11 µM
SMILES: Nc1cc2ncnc(Nc3cccc(Br)c3)c2cn1

IC50 (EGFR [6]): 0.36 µM and 0.35 µM
SMILES: COc1ccc(N2Cc3cnc(Nc4ccccc4)nc3N(c3ccccc3)C2=O)cc1

IC50 (EGFR [23]): 0.084 µM | IC50 (EGFR [9]): 0.12 µM
SMILES: CN(C)c1ccc2ncnc(Nc3cccc(Br)c3)c2c1

IC50 (EGFR (human) [24]): 0.049 µM
SMILES: COc1ccc(NN=Cc2c(N)ncnc2Nc2ccc3c(cnn3Cc3cccc(F)c3)c2)cc1
